Assay results taken from patent US5284871A, “Oxygen removal” (priority 1990, dated 1994).

Assays:
Pseudomonas fluorescens = experiment: Growth of Pseudomonas fluorescens in nutrient broth with and without sodium ascorbate and metals; format: cell-based; settings: 25° C.; for Growth of Pseudomonas fluorescens in nutrient broth: sodium ascorbate 0.2%, metal 88 μM; for effect on the growth of Pseudomonas fluorescens: nutrient broth
Procedure: (§1) To determine the antimicrobial effects of Oxysorb, 10 ml of broth in 16×100 screw-capped tubes were inoculated with diluted, overnight cultures to achieve an initial population of 100 to 1000 cells/ml. Nutrient broth was used for E. coli and Pseudomonas fluorescens; fluid thioglycollate medium was used for Clostridium sporogenes. Following inoculation, sodium ascorbate was added at a level of 0.2%, then 88 μM metal salt (copper gluconate, cobalt chloride, or ferric chloride). Ascorbate, copper, cobalt, and iron solutions were prepared and filter sterilized just prior to use. Tubes were incubated at 25° C. with caps tightened, unless they were placed in anaerobic (Gas Pak) jars. Anaerobically incubated tubes had loose caps to allow for generation of an anaerobic environment in the tube headspace. Samples from two individual tubes were plated periodically.

[1] = Dissolved oxygen consumption measured with a Clark oxygen electrode; format: physicochemical; settings: for oxygen utilization by one component alone / effect of protein on the rate of oxygen removal by Oxysorb: pH 7.4; for effect of chelating agent on oxygen removal by Oxysorb: 1 mM chelating agent, 100 μM copper gluconate, 10 mM sodium ascorbate; for reducing agent in copper-mediated oxygen removal: 1 mM reducing agent, 100 micromolar copper gluconate; for effect of protein on the rate of oxygen removal by Oxysorb: 0.2% ascorbic acid, 40 ppm copper gluconate, with and without 2 mM glycine
Procedure: The oxygen tension was measured in 1 mM sodium ascorbate and 50 mM Tris, pH 7.4 at 25° C. using a Clark oxygen electrode.
Initial rates were measured in 50 micromolar copper sulfate, 1 mM sodium ascorbate, and 50 mM Tris, pH 7.4, at 25° C.
The initial rates were determined in 50 micromolar copper sulfate, 1 mM sodium ascorbate, and 50 mM Tris, pH 7.4 at 10° C., 15° C., 20° C., 25° C., 30° C., 35° C., and 40° C.
The rate of O2 consumption at 25° C. in 10 mM sodium ascorbate, 100 micromolar copper gluconate, 50 mM Tris, pH 7.4, and 1 mM chelating agent was monitored using a Clark electrode.
The rate of O2 consumption at 25° C. in 10 mM sodium ascorbate, 50 mM Tris, pH 7.4, and 100 micromolar transition metal was monitored using a Clark electrode.
The rate of O2 consumption at 25° C. in 100 micromolar copper gluconate, 50 mM Tris, pH 7.4, and 1 mM reducing agent was monitored using a Clark electrode.
Increasing amounts of ovalbumin in the absence and presence of glycine were added to the Oxysorb system and the rate of O2 consumption at 25° C. was monitored using a Clark electrode.
The chelating agents used for this experiment were glycine, L-histidine, phytic acid, and EDTA. Purified water and Tris were dispensed into the vial, and then 1 mM chelating agent and 100 μM copper gluconate were added. Upon stabilization of the oxygen electrode, the ascorbic acid was introduced and the reaction quickly took place.
Another experiment was designed to substitute a variety of transition metals and reducing agents in place of copper and ascorbate. The transition metals were ferric chloride, manganese sulfate, cobalt chloride, and chromium chloride. The final concentration of these metals was 100 micromolar in 10 mM ascorbic acid and 50 mM Tris buffer, pH 7.4. To start the reaction, the metal was added to these solution, and the removal of dissolved oxygen was monitored using a Clark electrode.
The reducing agents substituted for ascorbic acid were sodium sulfite, cysteine, and catechol. The order of addition was purified water, Tris, and 1 mM reducing agent. When the electrode stabilized, the copper gluconate was added.
Experiments were conducted to determine the effect of protein on the reaction of the Oxysorb system. Using a Clark electrode, the oxygen consumption was measured in solutions containing 50 mM Tris, pH 7.4, 0.2% ascorbic acid, 40 ppm copper gluconate, variable amounts of ovalbumin, with and without 2 mM glycine. The order of addition was water, Tris, glycine, copper gluconate, ovalbumin, and ascorbic acid.

E. coli = experiment: Growth of E. coli in nutrient broth with and without sodium ascorbate and metals; format: cell-based; design: Growth of E. coli in nutrient broth: unit not given here; settings: 25° C.; for Growth of E. coli in nutrient broth: sodium ascorbate 0.2%, metal 88 μM
Procedure: as §1

[2] = system: microorganisms in potato water; experiment: Microbiological evaluation of potato water; settings: room temperature
Procedure: Another experiment was conducted to determined if the system of the present invention could delay or prevent textural degradation of potatoes stored in water. Raw potatoes were peeled, cubed, and immersed in water and in solutions of 40 ppm copper gluconate and 0.1% or 0.5% ascorbic acid. The samples were kept in uncovered glass mason jars at room temperature.

[3] = system: polyphenol oxidase activity in potatoes; experiment: Browning of pureed potato; settings: refrigerated, seven days
Source text: A control of water and potato was pureed in a blender and placed into a screw top jar, filled to overflowing to minimize headspace. The same was done to a sample of potato and 40 ppm copper gluconate and 0.1% ascorbic acid in water. The jars were refrigerated and inverted frequently to disperse any foam formed.

[4] = Oxidation of ascorbic acid to dehydroascorbic acid, monitored spectrophotometrically; format: physicochemical; settings: 50 micromolar ascorbic acid, 1 micromolar Cu^2+, pH 7.4, 25° C.; 1000 U/ml catalase, 25 U/ml SOD
Procedure: The rate of oxidation at 25° C. in 50 mM Tris, pH 7.4, was monitored spectrophotometrically. […] The rate of oxidation at 25° C. in 50 mM Tris, pH 7.4, was monitored spectrophotometrically. […] Both reactions were carried out at 25° C. in 50 mM Tris, pH 7.4.

yeast = experiment: Yeast growth at 25° C. with the oxygen scavenging system; format: cell-based; settings: 4-day period, 0.004% copper gluconate, 0.2% sodium ascorbate
[5] = anaerobic incubation (Gas Pak jar)

Molecule: O=C1O[C@H]([C@@H](O)CO)C([O-])=C1O.[Na+] [Ascorbate, sodium ascorbate]
- Growth of Pseudomonas fluorescens in nutrient broth (Pseudomonas fluorescens; Time 0 days): 160
- Growth of Pseudomonas fluorescens in nutrient broth (Pseudomonas fluorescens; Time 0.25 days): 170
- Growth of Pseudomonas fluorescens in nutrient broth (Pseudomonas fluorescens; Time 1 day): 4.7 × 10^7
- Growth of Pseudomonas fluorescens in nutrient broth (Pseudomonas fluorescens; Time 4 days): 7.2 × 10^8
- Growth of Pseudomonas fluorescens in nutrient broth (Pseudomonas fluorescens; Time 6 days): 2.7 × 10^8
- oxygen utilization by one component alone [1]: No oxygen utilization
- Growth of E. coli in nutrient broth (E. coli; Time 0 days): 350
- Growth of E. coli in nutrient broth (E. coli; Time 0.25 days): 4600
- Growth of E. coli in nutrient broth (E. coli; Time 1 day): 1.6 × 10^8
- Growth of E. coli in nutrient broth (E. coli; Time 2 days): 4.6 × 10^8
- Growth of E. coli in nutrient broth (E. coli; Time 5 days): 3.8 × 10^8
- effect on the growth of E. coli (E. coli; [5]): slightly reduced the maximum population
- effect on the growth of E. coli (E. coli; sealed tubes, nutrient broth): little effect

Molecule: [Cl][Co][Cl] [Co^2+, cobalt chloride]
- Growth of Pseudomonas fluorescens in nutrient broth (Pseudomonas fluorescens; Time 0 days): 150
- Growth of Pseudomonas fluorescens in nutrient broth (Pseudomonas fluorescens; Time 0.25 days): 65
- Growth of Pseudomonas fluorescens in nutrient broth (Pseudomonas fluorescens; Time 1 day): 1.9 × 10^6
- Growth of Pseudomonas fluorescens in nutrient broth (Pseudomonas fluorescens; Time 4 days): 5.6 × 10^8
- Growth of Pseudomonas fluorescens in nutrient broth (Pseudomonas fluorescens; Time 6 days): 5.5 × 10^7
- effect on the growth of Pseudomonas fluorescens (Pseudomonas fluorescens): slowed the growth
- Growth of E. coli in nutrient broth (E. coli; Time 0 days): 430
- Growth of E. coli in nutrient broth (E. coli; Time 0.25 days): 690
- Growth of E. coli in nutrient broth (E. coli; Time 1 day): 8.1 × 10^5
- Growth of E. coli in nutrient broth (E. coli; Time 2 days): 2.2 × 10^6
- Growth of E. coli in nutrient broth (E. coli; Time 5 days): 4.5 × 10^8
- effect on the growth of E. coli (E. coli; sealed tubes, nutrient broth): Growth was slowed but not stopped

Molecule: O=C(O)CN(CCN(CC(=O)O)CC(=O)O)CC(=O)O [EDTA]
- effect of chelating agent on oxygen removal by Oxysorb ([1]; pH 7.4, 25° C.): almost completely inhibited

Molecule: [Cl][Fe]([Cl])[Cl] [Fe^3+, ferric chloride]
- Growth of Pseudomonas fluorescens in nutrient broth (Pseudomonas fluorescens; Time 0 days): 130
- Growth of Pseudomonas fluorescens in nutrient broth (Pseudomonas fluorescens; Time 0.25 days): 160
- Growth of Pseudomonas fluorescens in nutrient broth (Pseudomonas fluorescens; Time 1 day): 6.2 × 10^7
- Growth of Pseudomonas fluorescens in nutrient broth (Pseudomonas fluorescens; Time 4 days): 8.1 × 10^7
- Growth of Pseudomonas fluorescens in nutrient broth (Pseudomonas fluorescens; Time 6 days): 5.1 × 10^7
- effect on the growth of Pseudomonas fluorescens (Pseudomonas fluorescens): did not differ from the control
- Growth of E. coli in nutrient broth (E. coli; Time 0 days): 420
- Growth of E. coli in nutrient broth (E. coli; Time 0.25 days): 6400
- Growth of E. coli in nutrient broth (E. coli; Time 1 day): 2.1 × 10^8
- Growth of E. coli in nutrient broth (E. coli; Time 2 days): 3.4 × 10^8
- Growth of E. coli in nutrient broth (E. coli; Time 5 days): 1.5 × 10^8
- effect on the growth of E. coli (E. coli; sealed tubes, nutrient broth): no effect

Molecule: N[C@@H](Cc1c[nH]cn1)C(=O)O [Histidine, L-histidine]
- effect of chelating agent on oxygen removal by Oxysorb ([1]; pH 7.4, 25° C.): some inhibition

Molecule: O=P(O)(O)O[C@H]1[C@H](OP(=O)(O)O)[C@@H](OP(=O)(O)O)[C@H](OP(=O)(O)O)[C@@H](OP(=O)(O)O)[C@H]1OP(=O)(O)O [Phytic acid, phytic acid]
- effect of chelating agent on oxygen removal by Oxysorb ([1]; pH 7.4, 25° C.): slightly slower than the control

Molecule: O=C1O[C@H]([C@@H](O)CO)C(O)=C1O [ascorbic acid]
- reducing agent in copper-mediated oxygen removal ([1]; pH 7.4, 25° C.): most efficient reducing agent

Molecule: O=S(=O)([O-])[O-].[Cu+2] [copper sulfate]
- oxygen utilization by one component alone [1]: No oxygen utilization

Molecule: N[C@@H](CS)C(=O)O [cysteine]
- reducing agent in copper-mediated oxygen removal ([1]; pH 7.4, 25° C.): more reactive than sulfite

Molecule: NCC(=O)O [glycine]
- effect of chelating agent on oxygen removal by Oxysorb ([1]; pH 7.4, 25° C.): faster than that of the control
- effect of protein on the rate of oxygen removal by Oxysorb [1]: diminished this protein effect

Molecule: CC(O)CO (centres unmarked) [propylene glycol]
- effect of freezing point depressant on the rate of oxygen removal ([1]; 50 micromolar copper sulfate, 1 mM sodium ascorbate, pH 7.4, 25° C.): not affected significantly

Molecule: O=S([O-])O.[Na+] [sodium bisulfite]
- effect on chemical and microbiological events in potatoes stored in water [2]: no effect at all
- browning of pureed potato [3]: this browning does not occur

Molecule: O=S([O-])[O-].[Na+].[Na+] [sulfite, sodium sulfite]
- reducing agent in copper-mediated oxygen removal ([1]; pH 7.4, 25° C.): more reactive than catechol

Molecule: catalase
- effect on oxidation of ascorbic acid in the presence of Cu^2+ [4]: inhibition

Molecule: copper gluconate [Cu^2+]
- Growth of Pseudomonas fluorescens in nutrient broth (Pseudomonas fluorescens; Time 0 days): 140
- Growth of Pseudomonas fluorescens in nutrient broth (Pseudomonas fluorescens; Time 0.25 days): 180
- Growth of Pseudomonas fluorescens in nutrient broth (Pseudomonas fluorescens; Time 1 day): 9.6 × 10^7
- Growth of Pseudomonas fluorescens in nutrient broth (Pseudomonas fluorescens; Time 6 days): 1.6 × 10^8
- transition metal as catalyst of oxygen removal ([1]; 100 micromolar metal, 10 mM ascorbic acid, 50 mM Tris pH 7.4): best catalyst
- Growth of E. coli in nutrient broth (E. coli; Time 0 days): 510
- Growth of E. coli in nutrient broth (E. coli; Time 0.25 days): 3100
- Growth of E. coli in nutrient broth (E. coli; Time 1 day): 4.7 × 10^7
- Growth of E. coli in nutrient broth (E. coli; Time 2 days): 4.8 × 10^7
- Growth of E. coli in nutrient broth (E. coli; Time 5 days): 7.3 × 10^6
- effect on the growth of E. coli (E. coli; [5]): further suppressed growth
- effect on the growth of E. coli (E. coli; sealed tubes, nutrient broth): reduced both the growth rate and the maximum population
- effect on yeast growth (yeast): no toxicity

Molecule: superoxide dismutase
- effect on oxidation of ascorbic acid in the presence of Cu^2+ [4]: substantial acceleration

B1: ovalbumin: protein added to the Oxysorb system; binds copper with high affinity (protein, UniProt P01012 2-386, looked up)
Ovalbumin: GSIGAASMEFCFDVFKELKVHHANENIFYCPIAIMSALAMVYLGAKDSTRTQINKVVRFDKLPGFGDSIEAQCGTSVNVHSSLRDILNQITKPNDVYSFSLASRLYAEERYPILPEYLQCVKELYRGGLEPINFQTAADQARELINSWVESQTNGIIRNVLQPSSVDSQTAMVLVNAIVFKGLWEKAFKDEDTQAMPFRVTEQESKPVQMMYQIGLFRVASMASEKMKILELPFASGTMSMLVLLPDEVSGLEQLESIINFEKLTEWTSSNVMEERKIKVYLPRMKMEEKYNLTSVLMAMGITDVFSSSANLSGISSAESLKISQAVHAAHAEINEAGREVVGSAEAGVDAASVSEEFRADHPFLFCIKHIATNAVLFFGRCVSP
- effect of protein on the rate of oxygen removal by Oxysorb [1]: greatly decreases the rate of oxygen removal
